“Also recorded” adds a separate entry of the source.
Tests used:
UCP2 protein [1] = target: T1, UCP2 protein (Mus musculus, UniProt P70406); experiment: Respiration stimulation factor in mitochondria of recombinant yeast expressing UCP2; assay type: biochemical, mice; conditions: for activation of the activity of UCP2 protein: pH not stated
T1 construct: lacking the untranslated regions 5′ and 3′ is obtained by enzymatic amplification; expressed in transfected cells; host or cells: Saccharomyces cerevisiae diploid W303, vector pYeDP-1/8-10; isolated mitochondria
T1 sequence (P70406 1-309): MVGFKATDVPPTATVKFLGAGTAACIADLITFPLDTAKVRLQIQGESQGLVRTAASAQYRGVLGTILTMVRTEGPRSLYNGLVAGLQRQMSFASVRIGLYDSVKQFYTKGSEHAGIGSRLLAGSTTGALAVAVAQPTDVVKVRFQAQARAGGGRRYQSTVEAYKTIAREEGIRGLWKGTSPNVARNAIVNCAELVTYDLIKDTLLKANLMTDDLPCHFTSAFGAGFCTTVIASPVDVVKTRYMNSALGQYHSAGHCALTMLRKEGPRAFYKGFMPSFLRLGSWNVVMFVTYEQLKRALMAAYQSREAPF
Description: The effect of this type of compounds particularly on the activity of UCP2 protein, has been shown on a yeast model. The test consists in constructing yeast layers of recombinant Saccharomyces cervisiae yeasts being capable of expressing UCP2 protein, extracting UCP2 proteins from the mitochondria and measuring the activity of UCP2 protein in the presence or in the absence of retinoic acid. In the model which has been retained, the uncoupling activity of the UCP2 proteins is quantitatively measured by means of the factor of stimulation of respiration.
(§1) This factor corresponds to the ratio of respiration and baseline respiration, measured or in the absence of retinoic acid (when measurements are made at a constant pH but varying the concentration of retinoic acid) or at pH 6.8 (when measurements are made at a given concentration of retinoic acid, but varying the pH).
(§2) Respiration is determined by measurement of the quantity of consumed oxygen, expressed in nanomoles of oxygen per minute and milligram of mitochondrial proteins, the consumption of oxygen being directly linked to the quantity of substrate having been consumed by the mitochondria (in calories).
The cDNA of UCP2 proteins of mice (C. Fleury et al. (1997) Uncoupling protein-2: A novel gene linked to obesity and hyperinsulinaemia, Nature Genetics, 15, 269-272) lacking the untranslated regions 5′ and 3′ is obtained by enzymatic amplification with the following oligonucleotides:
The resulting DNA product is repaired with a Kleenow enzyme, thereafter cut with EcoRl and Sacl. This forces donation in the pYeDP-1/8-10 vector. In each case, the insertion of cDNA encoding for UCP2 protein in the pYeDP vector has been sequenced so as to verify that the encoding sequence had the expected properties. The UCP2-expressing pYeDP-YCP vector is introduced in a diploid W303 strain of Saccharomyces cervisiae yeast ([…]; ade2-10; his3-11,15; leu2-3,112; ura3-1; canl-100; trp-) by electroporation and the transformants are selected for their […].
A process derived from that described by Guérin et al. (Guérin B., Labbe P. et Somlo, M. (1979) Methods Enzymol; 55, 149-159) is used. 36 hours before the extraction of the mitochondria a pre-culture in SP-medium (0.67% o nitrogenated yeast base, 0.1% KH2PO4, 0.12% (NH4)2SO4, 0.1% glucose, 2% lactic acid, 0.1% casaminoacids, 20 mg/l triptophane, 40 mg/1 adenine of pH 4.5), 10 or 12 hours before the extraction, a dilution in SP-medium (2% galactose, 0.67% nitrogenated yeast base, 0.1% casaaminoacids, 20 mg/l triptophane and […] adenine, at an optical density of 0.35-0.4).
Protoplasts are prepared by enzymatic digestion with cytohelicase and the mitochondria are isolated by differential centrifugation after homogenization of the protoplasts obtained by enzymatic digestion of the cell wall.
Only quantitative measurement of mitochondrial respiration has been made for UCP2. This measurement is made at 20° C. in an oxygen-electrode chamber (Clark electrode) commercialized by the company HANSATECH. The incubation medium contains 0.65M mannitol, […] Tris/Maleate, 0.5 mM EGTA, 2 mM MgC12, 10 mMK2hpo4, 1 mg/ml ([…]) albumin pH6.8).
Mitochondria concentration is 0.15 mg/ml. NADH (3 mM) is used as substrate as mitochondria of Saccharomyces cervisiae are capable of oxidizing NADH of external origin).
The tests are performed varying any of the pH or the terinoïc acid concentration in the medium. The concentrations of free retinoic acid are esteemed up to some tens of nanomars (determined by fixing the molar ratio retinoic acid:albumin). The concentration of albumin is 0.1 mg/ml […]) in the respiration buffer and the tested pH are respectively 6.8; 7.1; 7.3 or 7.5. The further components of the buffer are identical to those in example 1 and in the same concentrations.

UCP1 protein [2] = target: T2, UCP1 protein (Rattus norvegicus, UniProt P04633); experiment: Membrane potential of yeast mitochondria expressing UCP1; assay type: biochemical; conditions: FIG. 6b, molar ratio retinoic acid:albumin 2:1 and 4:1
T2 construct: The cDNA of the UCP1 protein which lacks the untranslated regions at 3′ and 5′ is obtained by enzymatic amplification; expressed in transfected cells; host or cells: Saccharomyces cerevisiae, vector pYeDP-1/8-10 (plasmid pYeDP-UCP+); isolated mitochondria
T2 sequence (P04633 1-307): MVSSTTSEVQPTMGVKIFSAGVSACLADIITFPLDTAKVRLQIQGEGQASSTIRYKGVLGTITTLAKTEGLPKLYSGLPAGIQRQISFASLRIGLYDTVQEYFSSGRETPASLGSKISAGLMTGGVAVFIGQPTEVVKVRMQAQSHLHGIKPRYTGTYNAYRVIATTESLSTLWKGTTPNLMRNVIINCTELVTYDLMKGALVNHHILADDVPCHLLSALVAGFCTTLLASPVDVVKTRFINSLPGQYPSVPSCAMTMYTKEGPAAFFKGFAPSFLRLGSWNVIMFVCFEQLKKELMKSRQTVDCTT
Description: There is also a qualitative method for determining the uncoupling activity of an UCP protein. It is the measurement of the mitochondrial membrane potential the reduction of which is an evidence of the decrease of the quality of the recovery of chemical energy at the level of the mitochondria. Activation of an uncoupling protein is reflected by de decrease of the membrane potential followed by an acceleration of the respiration.
FIG. 6 evidences the variation in the membrane potentials and respiration of mitochondria in yeasts (reflecting the uncoupling activity of UCP1 protein) under the effect of the retinoic acid. The upper curve reflects oxygen consumption (expressed in nanomoles of oxygen per minute per milligram of mitochondrial proteins) and the lower curve the membrane potentials. […]
This activity may be measured qualitatively or quantitatively, with the help of the parameters: • qualitatively: • The mitochondrial membrane potential; the increase of the activity of an uncoupling protein is reflected by a reduction of the membrane potential and a resulting increase in oxygen consumption. In turn, the increase corresponds to an increase in dissipation of energy. • quantitatively: • mitochondrial respiration (oxygen consumption) which is linked directly to the quantity of substrate consumed by the mitochondria. […]

UCP1 protein [3] = target: T2, UCP1 protein; experiment: Respiration stimulation factor in mitochondria of recombinant yeast expressing UCP1; assay type: biochemical
Procedure: as §1, §2
FIG. 2 represents a curve of response of yeast mitochondria to retinoic acid. In the abscissa, there appears the molar ratio of retinoic acid/albumin (albumin concentration: 1 micromole within the medium); in the ordinate, there appears the factor of stimulation of the baseline respiration. FIG. 2a was obtained at pH 6.8 and figure at pH 7.3.
The construction of the expression vectors, the recombinant Saccharomyces cervisiae strains, the preparation of the mitochondria and the measurement of the activity of the UCP1 protein are described in the publication of Arechaga et al. already cited in example 1. […]

[4] = test system: yeast mitochondria lacking UCP proteins; experiment: Membrane potential of yeast mitochondria lacking UCP proteins (control); assay type: biochemical, Saccharomyces cervisiae; conditions: FIG. 6a
Description: FIG. 6 evidences the variation in the membrane potentials and respiration of mitochondria in yeasts (reflecting the uncoupling activity of UCP1 protein) under the effect of the retinoic acid. The upper curve reflects oxygen consumption (expressed in nanomoles of oxygen per minute per milligram of mitochondrial proteins) and the lower curve the membrane potentials. FIG. 6a corresponds to measurements made in yeast mitochondria lacking UCP proteins and FIG. 6b corresponds to measurements made in yeast mitochondria wherein UCP1 protein is expressed. • N: designates the addition of NADH (respitation substrate) • R: designates the addition of retinoic acid (respectively at a molar ratio retinoic acid:albumin of 2:1 and 4:1) • G: designates the addition of 1 millimolar guanosine diphosphate (an inhibitor of UCP1 protein).

UCP2 protein [5] = target: T1, UCP2 protein; experiment: Respiration stimulation factor in mitochondria of recombinant yeast expressing UCP2; assay type: biochemical, mice; conditions: FIG. 5; molar ratio acid:albumin 3:1 and 4:1

CC1=C(/C=C/C(C)=C/C=C/C(C)=C/CO)C(C)(C)CCC1 [retinol]
activation of the activity of UCP2 protein (UCP2 protein [1]): No activation

CC1=C(/C=C/C(C)=C/C=C/C(C)=C/C(=O)O)C(C)(C)CCC1 [retinoic acid, all-trans retinoic acid]
effect on mitochondrial membrane potential (UCP1 protein [2]): induces a reduction of the membrane potential | change of the activity of UCP2 protein when the concentration of retinoic acid increases (UCP2 protein [1]; molar ratio retinoic acid/albumin 3:1 vs 4:1, FIGS. 4a and 4b): slight increase | increase of the activity of UCP2 (respiration stimulation factor) (UCP2 protein [1]; pH 6.8, FIG. 2a): no notable increase; also recorded: not the case | increase of the activity of UCP2 (respiration stimulation factor) (UCP2 protein [1]; pH 7.3, FIG. 2b): the increase is very sensitive | activation of the activity of UCP2 protein (UCP2 protein [1]): activates the dissipation of energy by UCP2 | response of UCP1 protein (respiration stimulation factor) (UCP1 protein [3]; pH 6.8, FIG. 2a): responds | response / uncoupling activity of UCP1 protein (UCP1 protein [3]; pH not stated, FIG. 3a for palmitic acid): capable of increasing the uncoupling activity | effect on mitochondrial membrane potential [4]: not observed

O=C(O)c1ccccc1O [salicylic acid]
activation of the activity of UCP2 protein (UCP2 protein [1]): No activation

CCCCC/C=C\C/C=C\C/C=C\C/C=C\CCCC(=O)O [arachidonic acid]
activation of the activity of UCP2 protein (UCP2 protein [1]): No activation

CCCCCCCCCCCCCCCC(=O)O [palmitic acid]
activation of the activity of UCP2 protein (UCP2 protein [1]): does not have any effect; also recorded: not the case | change of UCP2 activity with the pH and the increase of the concentration of palmitic acid (UCP2 protein [5]): slight increase

CC1=CC(=O)CC(C)(C)C1(O)/C=C/C(C)=C\C(=O)O (centres unmarked) [abscissic acid]
activation of the activity of UCP2 protein (UCP2 protein [1]): No activation

— patent US20070015830A1, “Use of a retinoid type compound to modulate in vivo the decoupling activity of the protein UCP2” (priority 1997, published 2007)
